Assays:
Experiment in all cases: Example B1 herbicidal action, post-emergence, 96-cell seed trays, climatic chamber
Format in all cases: in vivo
[1] = tested on: Amaranthus retroflexus (AMARE); conditions: Application post-emergence, 1000 mg/l spray equivalent to 1000 g/ha, evaluated after 9 days
Procedure: (§1) Seeds of a variety of test species were sown in sterilised standard soil in seed trays each having 96 cells. After cultivation for 8 to 9 days cultivation (post-emergence) under controlled conditions in a climatic chamber (cultivation at 23/17° C., day/night; 13 hours light; 50-60% humidity), the plants were treated with an aqueous spray solution of 1000 mg/l of the active ingredient dissolved in 10% DMSO (dimethyl sulfoxide, CAS RN 67-68-5) as a solvent, equivalent to 1000 g/ha. The plants were grown in the climatic chamber after application at (24/19° C., day/night; 13 hours light; 50-60% humidity) and watered twice daily. After 9 days until the test was evaluated (100=total damage to plant, 0=no damage to plant)

[2] = tested on: Solanum nigrum (SOLNI); conditions: Application post-emergence, 1000 mg/l spray equivalent to 1000 g/ha, evaluated after 9 days (100=total damage to plant, 0=no damage to plant)
Procedure: as §1

[3] = tested on: Stellaria media (STEME); conditions: Application post-emergence, 1000 mg/l spray equivalent to 1000 g/ha, evaluated after 9 days (100=total damage to plant, 0=no damage to plant)
Procedure: as §1

[4] = tested on: Nasturtium officinale (NAAOF); design: scale not given here; conditions: Application post-emergence, 1000 mg/l spray equivalent to 1000 g/ha, evaluated after 9 days (100=total damage to plant, 0=no damage to plant)
Procedure: as §1

SMILES	damage to plant, Amaranthus retroflexus (AMARE) [1]	damage to plant, Solanum nigrum (SOLNI) [2]	damage to plant, Stellaria media (STEME) [3]	damage to plant, Nasturtium officinale (NAAOF) [4]
CC(C)=CC(=O)Oc1c(-c2c(F)ccc(F)c2Cl)c(=O)n(C)c2nccnc12 [Compound C90]	3	8	7	6
Cn1c(=O)c(-c2ccc(Cl)cc2Cl)c(O)c2nccnc21 [Compound D3]	0	8	8	8
Cc1cc(C)c(-c2c(OC(=O)C(C)C)c3nccnc3n(C)c2=O)c(C)c1 [Compound C75]	3	7	7	6
CC(C)C(=O)c1c(-c2c(Cl)cccc2Cl)c(=O)n(C)c2nccnc12 [Compound C56]	8	0	7	7
Cc1noc(C)c1C(=O)Oc1c(-c2c(F)ccc(F)c2Cl)c(=O)n(C)c2nccnc12 [Compound C100]	6	5	3	6
CC(=O)Oc1c(-c2c(Cl)cccc2Cl)c(=O)[nH]c2nccnc12 [Compound B10]	8	0	0	6
CCn1c(=O)c(-c2cccc(Cl)c2)c(OC(C)=O)c2nccnc21 [Compound C66]	0	0	7	7
CC#CCOC(=O)Oc1c(-c2c(Cl)cccc2Cl)c(=O)n(C)c2nccnc12 [Compound C178]	4	2	7	6
COc1cccc(C(=O)Oc2c(-c3c(F)ccc(F)c3Cl)c(=O)n(C)c3nccnc23)c1 [Compound C85]	5	4	4	3
COCCn1c(=O)c(-c2c(F)ccc(F)c2Cl)c(OC(=O)C(C)C)c2nccnc21 [Compound C15]	0	1	5	6
CC(C)n1c(=O)c(-c2c(F)ccc(F)c2Cl)c(OC(=O)C(C)(C)C)c2nccnc21 [Compound C19]	0	3	6	4
CC(=O)Oc1c(-c2c(Cl)cc(C(F)(F)F)cc2Cl)c(=O)[nH]c2nccnc12 [Compound B15]	0	0	2	7
C/C=C/C(=O)Oc1c(-c2c(Cl)cccc2Cl)c(=O)n(C)c2nccnc12 [Compound C35]	2	0	7	7
COc1ccc(-c2c(O)c3nccnc3[nH]c2=O)c(OC)c1 [Compound A20]			0	2
CC(C)C(=O)Oc1c(-c2c(F)ccc(F)c2Cl)c(=O)n(C)c2nc(Cl)cnc12 [Compound C82]	4	0	0	0
CCC(C(=O)Oc1c(-c2c(F)ccc(F)c2Cl)c(=O)n(C)c2nccnc12)c1ccccc1 (stereo not shown) [Compound C94]	5	4	6	7
CCn1c(=O)c(-c2cc(C(F)(F)F)ccc2Cl)c(OC(=O)C(C)C)c2nccnc21 [Compound C119]	7	6	8	7
CCC(=O)Oc1c(-c2ccccc2OC(F)(F)F)c(=O)n(C)c2nccnc12 [Compound C28]	2	2	7	7

— patent US8133847B2, “Pyrido[2,3-B]pyrazine derivatives useful as herbicidal compounds” (Syngenta Limited, priority 2006, dated 2012)
